# Data as given in US5169841A, “Renin inhibitors” (Hoechst Aktiengesellschaft, priority 1987, dated 1992).
# Biological target: T1, human plasma renin (Homo sapiens, UniProt P00797)
# T1 construct: from tissue; host or cells: human EDTA plasma from volunteer subjects
# T1 sequence (P00797 67-406): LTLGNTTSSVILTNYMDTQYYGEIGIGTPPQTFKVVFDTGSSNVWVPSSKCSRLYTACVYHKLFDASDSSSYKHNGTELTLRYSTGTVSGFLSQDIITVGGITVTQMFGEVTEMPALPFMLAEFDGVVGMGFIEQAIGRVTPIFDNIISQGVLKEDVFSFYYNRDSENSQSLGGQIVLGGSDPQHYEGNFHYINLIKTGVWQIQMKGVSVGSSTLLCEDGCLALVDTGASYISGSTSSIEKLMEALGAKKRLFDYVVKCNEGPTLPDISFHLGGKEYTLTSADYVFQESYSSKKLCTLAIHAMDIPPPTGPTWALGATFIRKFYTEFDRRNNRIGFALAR
# Test: Inhibition of angiotensin I formation in human plasma (Renin-Maia radioimmunoassay)
# Assay type: biochemical
# Conditions: 37° C., 1 hour, % residual plasma renin activity by angiotensin I RIA
# Procedure: The activity of renin inhibitors can be checked by in vitro tests. These entail the decrease in the formation of angiotensin I being measured in various systems (human plasma, purified human renin).
# For example human plasma which contains both renin and angiotensinogen is incubated at 37° C. with the compound to be tested. During this, angiotensin I is liberated from angiotensinogen under the action of renin and can subsequently be measured using a commercially available radioimmunoassay. This liberation of angiotensin is inhibited by renin inhibitors.
# The blood is obtained from volunteer subjects (about 0.5 litre per person; Bluko sampler from ASID Bonz and Sohn, Unterschleissheim) and is collected in partially evacuated bottles while cooling in ice. Coagulation is prevented by addition of EDTA (final concentration 10 mM). After centrifugation, (HS 4 Rotor (Sorvall), 3500 rpm, 0°-4° C., 15 min; repeat if necessary), the plasma is carefully removed with a pipette and frozen in suitable portions at -30° C. Only plasma with sufficiently high renin activity are used for the test. Plasma with low renin activity are activated by cold treatment (-4° C., 3 days (prorenin→renin).
# Angiotensin I is determined using the Renin-Maia® Kit (Serono Diagnostics S. A., Coinsins, Switzerland). The plasma is incubated in accordance with the instructions given therein:
# 1000 μl of plasma (defrozen at 0-4° C.)
# 100 μl of phosphate buffer (ph 7.4)
# 10 μl of 0.1% Genapol PFIC
# 12 μl of DMSO or test product
# The test products are generally dissolved 10^-2 M in 100% dimethylsulfoxide (DMSO) and diluted appropriately with DMSO; the incubation mixture contains not more than 1% DMSO.
# The mixtures are mixed up in ice and placed in a water bath (37° C.) for 1 hour for the incubation. 6 samples in total (each of 100 μl) are taken from an additional mixture without inhibitor and without further incubation for the determination of the initial angiotensin I content of the plasma used.
# The concentrations of the test products are selected such that the 10-90% range of enzyme inhibition is approximately covered (at least five concentrations). At the end of the incubation time, three 100 μl samples from each mixture are frozen in precooled Eppendorf tubes on dry ice and stored at about -25° C. for the determination of angiotensin I (means from three individual samples).
# The instructions for use of the RIA Kit (Rennin-Maia® Kit, Serono Diagnostics S. A., Coinsins, Switzerland) are followed exactly.
# The calibration plot embraces the range from 0.2 to 25.0 ng of angiotensin I per ml. The basic angiotensin I content of the plasma is subtracted from all the measured values. The plasma renin activity (PRA) is reported as ng of Ang I/ml x hour. PRA values in the presence of the test substances are related to a mixture without inhibitor (=100%) and reported as % residual activity. The IC50 value is read off from the plot of % residual activity against the concentration (M) of the test product (logarithmic scale).
row,SMILES,IC50 [nM]
1,"CCC[C@H](NC(=O)[C@H](Cc1ccccc1)NC(=O)CC(C)C)C(=O)NC(CC1CCCCC1)B1OC2CC3CC(C3(C)C)C2(C)O1 (single isomer, unassigned) [Example 13, Iva-Phe-Nva-[cyclohexylmethyl, (-)-pinanedioxyboryl]-methylamide]",2400
2,"CC(C)CC(=O)N[C@@H](Cc1ccccc1)C(=O)N[C@@H](Cc1c[nH]cn1)C(=O)NC(CC1CCCCC1)B1OC(C)(C)C(C)(C)O1 (stereo partly drawn) [Example 3, Iva-Phe-His-[cyclohexylmethyl,(4,4,5,5-tetramethyl-1,3,2-dioxaborolane-2-yl)]methylamide]",2000
3,"CC(C)CC(=O)N[C@@H](Cc1cccs1)C(=O)N[C@@H](Cc1c[nH]cn1)C(=O)NC(CC1CCCCC1)B1OC(C)(C)C(C)(C)O1 (stereo partly drawn) [Example 4, Iva-Thi-His-[cyclohexylmethyl,(4,4,5,5-tetramethyl-1,3,2-dioxaborolane-2-yl)]methylamide]",450
4,"CC(C)CC(=O)N[C@@H](Cc1ccccc1)C(=O)N[C@@H](Cc1cccs1)C(=O)NC(CC1CCCCC1)B1OC(C)(C)C(C)(C)O1 (stereo partly drawn) [Example 7, Iva-Phe-Thi-[cyclohexylmethyl,(4,4,5,5-tetramethyl-1,3,2-dioxaborolane-2-yl)]methylamide]",670
5,CCC[C@H](NC(=O)[C@H](Cc1ccccc1)NC(=O)CC(C)C)C(=O)NC(CC1CCCCCC1)B1OC(C)(C)C(C)(C)O1 (some centres unmarked) [Example 16],3000
6,"CC(C)CC(=O)N[C@@H](Cc1ccccc1)C(=O)N[C@@H](Cc1c[nH]cn1)C(=O)NC(CC1CCCCCCC1)B1OC(C)(C)C(C)(C)O1 (stereo partly drawn) [Example 18, Iva-Phe-His-[cycloctylmethyl,(4,4,5,5-tetramethyl-1,3,2-dioxaborolane-2-yl)]methylamide]",9000
7,"CC(C)CC(=O)N[C@@H](Cc1ccccc1)C(=O)N[C@@H](Cc1c[nH]cn1)C(=O)NC(CC1CCCCCC1)B1OC(C)(C)C(C)(C)O1 (stereo partly drawn) [Example 19, Iva-Phe-His-[cycloheptylmethyl,(4,4,5,5-tetramethyl-1,3,2-dioxaborolane-2-yl)]methylamide]",8000
8,"CCC[C@H](NC(=O)C(Cc1cccs1)CS(=O)(=O)C(C)(C)C)C(=O)NC(CC1CCCCC1)B1OC(C)(C)C(C)(C)O1 (some centres unmarked) [Example 35, [3-t-Butylsulfonyl,2-(2-thienylmethyl)]propionyl-Nva-[cyclohexylmethyl,(4,4,5,5-tetramethyl-1,3,2-dioxaborolane-2-yl)]methylamide]",280
9,"CCC[C@H](NC(=O)C(Cc1ccccc1)CS(=O)(=O)C(C)(C)C)C(=O)NC(CC1CCCCC1)B1OC(C)(C)C(C)(C)O1 (some centres unmarked) [Example 36, (2-Benzyl,3-t-butylsulfonyl)propionyl-Nva-[cyclohexylmethyl,(4,4,5,5-tetramethyl-1,3,2-dioxaborolane-2-yl)]methylamide]",620
10,"CC(C)[C@H](NC(=O)C(Cc1ccccc1)CS(=O)(=O)C(C)(C)C)C(=O)NC(CC1CCCCC1)B1OC(C)(C)C(C)(C)O1 (some centres unmarked) [Example 39, (2-Benzyl,3-t-butylsulfonyl)propionyl-Val-[cyclohexylmethyl,(4,4,5,5-tetramethyl-1,3,2-dioxaborolane-2yl)]-methylamide]",2100
11,"CC1(C)OB(C(CC2CCCCCC2)NC(=O)[C@H](Cc2cccs2)NC(=O)C(Cc2cccs2)CS(=O)(=O)C(C)(C)C)OC1(C)C (some centres unmarked) [Example 40, [3-t-Butylsulfonyl,2-(2-thienylmethyl)]propionyl-thi[cycloheptylmethyl,(4,4,5,5-tetramethyl-1,3,2-dioxaborolane-2-yl)]methylamide]",3600
12,"CCC[C@H](NC(=O)C(Cc1cccs1)CS(=O)(=O)C(C)(C)C)C(=O)NC(CC1CCCCCC1)B1OC(C)(C)C(C)(C)O1 (some centres unmarked) [Example 41, [3-t-Butylsulfonyl,2-(2-thienylmethyl)]propionyl-Nva-[cycloheptylmethyl,(4,4,5,5-tetramethyl-1,3,2-dioxaborolane-2-yl)]methylamide]",1500
13,"CCC[C@H](NC(=O)C(Cc1cccc2ccccc12)CS(=O)(=O)C(C)(C)C)C(=O)NC(CC(C)C)B1OC(C)(C)C(C)(C)O1 (some centres unmarked) [Example 42, [3-t-Butylsulfonyl,2-(1-naphthylmethyl)]propionyl-Nva-[3-methyl,1-(4,4,5,5-tetramethyl-1,3,2-dioxaborolane-2-yl)]butylamide]",950
14,"CCC[C@H](NC(=O)C(Cc1ccccc1)CS(=O)(=O)C(C)(C)C)C(=O)NC(CC1CCCC1)B1OC(C)(C)C(C)(C)O1 (some centres unmarked) [Example 44, (2-Benzyl,3-t-butylsulfonyl)propionyl-Nva-[cyclopentylmethyl,(4,4,5,5-tetramethyl-1,3,2-dioxaborolane-2-yl)]-methylamide]",2400
15,"CCC[C@H](NC(=O)C(Cc1ccccc1)CS(=O)(=O)C(C)(C)C)C(=O)NC(CC(CC)CC)B1OC(C)(C)C(C)(C)O1 (some centres unmarked) [Example 52, (2-Benzyl,3-t-butylsulfonyl)propionyl-Nvu-[3-ethyl,1-(4,4,5,5-tetramethyl-1,3,2-dioxaborolane-2-yl)]pentylamide]",2800

# Other lines, results leading:
row,IC50 [nM],SMILES
1,420,"CCC[C@H](NC(=O)[C@H](Cc1ccccc1)NC(=O)CC(C)C)C(=O)NC(CC1CCCCC1)B1OC(C)(C)C(C)(C)O1 (stereo partly drawn) [Example 1, Iva-Phe-Nva-[cyclohexylmethyl,(4,4,5,5-tetramethyl-1,3,2-dioxaborolane-2-yl)]methylamide]"
2,1000,"CCCC[C@H](NC(=O)[C@H](Cc1ccccc1)NC(=O)CC(C)C)C(=O)NC(CC1CCCCC1)B1OC(C)(C)C(C)(C)O1 (stereo partly drawn) [Example 2, Iva-Phe-Nle-[cyclohexylmethyl,(4,4,5,5-tetramethyl-1,3,2-dioxaborolane-2-yl)]methylamide]"
3,550,"CCC[C@H](NC(=O)[C@H](Cc1ccccc1)NC(=O)CC(C)C)C(=O)NC(CC1CCCCC1)B(O)O (stereo partly drawn) [Example 5, Iva-Phe-Nva-(cyclohexylmethyl,dihydroxyboryl)methylamide]"
4,2800,"CCC[C@H](NC(=O)[C@H](Cc1ccccc1)NC(=O)CC(C)C)C(=O)NC(CC1CCC(C)CC1)B1OC(C)(C)C(C)(C)O1 (stereo partly drawn) [Example 15, Iva-Phe-Nva-[(4-methylcyclohexyl)methyl,(4,4,5,5-tetramethyl-1,3,2-dioxaborolane-2-yl)]methylamide]"
5,550,"CC1(C)OB(C(CC2CCCCC2)NC(=O)[C@H](Cc2cccs2)NC(=O)C(Cc2cccs2)CS(=O)(=O)C(C)(C)C)OC1(C)C (some centres unmarked) [Example 43, [3-t-Butylsulfonyl,2-(2-thienylmethyl)]propionyl-Thi-[cyclohexylmethyl,(4,4,5,5-tetramethyl-1,3,2-dioxaborolane-2-yl)]methylamide]"
6,1500,CCC[C@H](NC(=O)C(Cc1cccc2ccccc12)CS(=O)(=O)C(C)(C)C)C(=O)NC(CC1CCCC1)B1OC(C)(C)C(C)(C)O1 (some centres unmarked) [Example 50]
7,1800,"CCC[C@H](NC(=O)C(Cc1cccc2ccccc12)CS(=O)(=O)C(C)(C)C)C(=O)NC(CC(CC)CC)B1OC(C)(C)C(C)(C)O1 (some centres unmarked) [Example 51, [3-t-Butylsulfonyl,2-(1-naphthylmethyl)]propionyl-Nva-[3-ethyl,1-(4,4,5,5-tetramethyl-1,3,2-dioxaborolane-2-yl)]-pentylamide]"
8,900,"CC1(C)OB(C(CC2CCCCC2)NC(=O)[C@H](CC(N)=O)NC(=O)C(Cc2cccs2)CS(=O)(=O)C(C)(C)C)OC1(C)C (some centres unmarked) [Example 54, (3-t-Butylsulfonyl,2-(2-thienylmethyl)]propionyl-Asn-[cyclohexylmethyl,(4,4,5,5-tetramethyl-1,3,2-dioxaborolane-2-yl)]methylamide]"
